What was measured:
[1] = test system: P. aeruginosa biofilms; assay: Biofilm dispersion in 24-well plates, crystal violet staining of remaining biofilm biomass; assay type: cell-based, Pseudomonas aeruginosa; conditions: controls: heat-inactivated PDH increasing concentrations; cofactors; acetyl-CoA 0.2 mM; NADH 2 mM; lactate 10 mM
Procedure: P. aeruginosa biofilms grown for 4 days in 24-well plates were exposed to pyruvate-depleting conditions. This was accomplished by exposing biofilms to increasing concentration of the enzyme pyruvate dehydrogenase (PDH) having a specific activity of 0.57 U/mg. PDH catalyzes the conversion of pyruvate to acetyl-CoA in the presence of CoA and NAD^+. Specifically, biofilms were exposed to 5, 10, and 20 mU (8.7, 17.4, and 32.8 mg enzyme) of PDH in the presence of NAD^+ and CoA. Biofilms grown in LB but left untreated were used as controls. Following overnight incubation, the remaining biofilm was stained using crystal violet.
Biofilms were grown in a 24-well plate system modified from the procedure described by Caiazza and O'Toole (2004) to elucidate the role of pyruvate in biofilm formation and biofilm dispersion.
Overnight cultures grown in LB medium were adjusted to an OD600 of 0.05 in fresh 5-fold diluted LB VBMM and grown at 37° C. and rotated at 220 r.p.m. in 24-well microtiter plates at a 45° angle, ensuring that the bottom of the wells is at the air-liquid interface, with the medium exchanged every 12 h.
For biofilm dispersion, biofilms were first grown for 4 days after which time the growth medium was supplemented with 10 mU porcine pyruvate dehydrogenase, cofactors (1 mM b-NAD, 1 mM sodium Co-A, 20 μM TPP) and allowed to incubate for an additional 16 h.

[2] = test system: P. aeruginosa ATCC 27312; assay: Porcine burn wound biofilm infection model; assay type: in vivo, Pseudomonas aeruginosa
Procedure: The well-known clinical burn wound isolate P. aeruginosa ATCC 27312 was employed.
Burn wounds were inoculated with 25 μl of a standardized P. aeruginosa suspension harboring 10^6 CFU/ml and allowed to establish biofilms for 24 h. Infected wounds were subsequently treated daily with 100 and 200 mU PDH in the absence of presence of 100 μg/ml tobramycin. Untreated wounds and wounds only exposed to carrier solution were used as controls. Following 3 and 6 days of treatment, bacterial cells present in wounds were harvested using a flush and scrub technique that separates biofilm bacteria from planktonic bacteria, by flushing the non-adherent (planktonic) bacteria off the wound, followed by scrubbing of the wound to remove adherent biofilm-associated bacteria from the wound bed.
Second degree porcine burn wounds were infected with P. aeruginosa ATCC® 27312™. […] Then, bacterial cells were removed from the wounds and the number of viable cells, as shown in (CFU) per wound determined using viability counts. […] Experiments are representative data obtained using 3 wounds per treatment group (n=3). Error bars represent standard deviation.

[3] = test system: P. aeruginosa biofilms; assay: Biofilm susceptibility assay, viability count; assay type: cell-based, Pseudomonas aeruginosa; conditions: 4-day biofilms, tobramycin 100 μg/ml, PDH 10 mU where present, overnight
Procedure: It is well established that planktonic cells are more susceptible to antimicrobial agents than their counterparts growing as a biofilm, and that dispersion coincides with bacteria transitioning to the planktonic mode of growth. […] P. aeruginosa biofilms grown for 4 days in 24-well plates were exposed to 100 μg/ml tobramycin in the absence of presence of PDH. Following overnight incubation, the number of viable biofilm cells were determined using viability count. […] Tobramycin in the presence of 10 mU PDH coincided with a reduction in the biofilm biomass to 3.5×10^3 cells/biofilm (FIG. 12A), with the reduction in the viable cells being equivalent to an overall 5.9-log reduction in the biofilm biomass relative to untreated biofilms. […] For susceptibility assays, biofilms were grown as for dispersion assays, but following 4 days of growth, the growth medium was supplemented the aminoglycoside antibiotic tobramycin (100 μg/ml), 10 mU porcine pyruvate dehydrogenase, and cofactors (1 mM b-NAD, 1 mM sodium Co-A, 20 μM TPP). Untreated biofilms or biofilms only exposed to cofactors alone were used as controls. Differences in the biofilm architecture were visualized by crystal violet staining or microscopy (brightfield, confocal laser scanning). Differences in drug susceptibility were evaluated by viability count.

[4] = test system: P. aeruginosa biofilms; assay: Microscopy (confocal, brightfield) of biofilm architecture and microcolony void formation; assay type: cell-based, Pseudomonas aeruginosa; conditions: 4-day biofilms, PDH 10 mU plus 500 uM SNP as NO source, 16 h
Text: To determine how exposure to PDH accomplished a reduction in the biofilm biomass, the remaining biofilm architecture was visually analyzed by confocal microscopy. Relative to untreated biofilms, biofilms exposed to PDH were not only characterized by an overall reduced biofilm biomass but by microcolonies having central voids (FIGS. 2E3 and 2F2). Void formation has previously linked with biofilm dispersion, a process in which sessile, surface-attached organisms liberate themselves from the biofilm to return to the planktonic state. […] In contrast, the vast majority of microcolonies by untreated biofilms were intact (FIG. 2E1), with only less than 8% of the microcolonies featuring central void formation (FIG. 2G). […]
Differences in the biofilm architecture were visualized by crystal violet staining or microscopy (brightfield, confocal laser scanning). Differences in drug susceptibility were evaluated by viability count.
FIGS. 15A-15F show the effect of PDH nanoparticles (NP) on biofilms. […] Biofilm biomass was quantitatively determined by confocal microscopy and COMSTAT analysis prior/post 24 h PDH treatment. […]
Biofilms were grown for 4 days in 24-well polystyrene plates in five-fold diluted LB. […] Number of microcolonies as percent of the total colonies counted per treatment group is shown. […]

CC(O)C(=O)O (stereo not drawn) [lactate]
effect on biofilm biomass relative to untreated biofilms [1]: no difference

CC(=O)SCCNC(=O)CCNC(=O)[C@H](O)C(C)(C)COP(=O)(O)OP(=O)(O)OC[C@H]1O[C@@H](n2cnc3c(N)ncnc32)[C@H](O)[C@@H]1OP(=O)(O)O [acetyl-CoA]
effect on biofilm biomass relative to untreated biofilms [1]: did not result in increased biofilm biomass accumulation

NC[C@H]1O[C@H](O[C@H]2[C@H](O)[C@@H](O[C@H]3O[C@H](CO)[C@@H](O)[C@H](N)[C@H]3O)[C@H](N)C[C@@H]2N)[C@H](N)C[C@@H]1O [tobramycin]
log reduction of P. aeruginosa biofilms present in porcine burn wounds ([2]; as stated in the summary, tobramycin with or without pyruvate-depleting conditions): 2.5 log | log reduction in viable biofilm cells (scrub) relative to untreated ([2]; tobramycin 100 μg/ml daily): 2 log | log reduction of the biofilm biomass (viable cells) relative to untreated [3]: 2.5 log | number of viable cells remaining ([3]; untreated 2.4×10^8): 1.2×10^5 cells per biofilm

NC(=O)C1=CN([C@@H]2O[C@H](COP(=O)(O)OP(=O)(O)OC[C@H]3O[C@@H](n4cnc5c(N)ncnc54)[C@H](O)[C@@H]3O)[C@@H](O)[C@H]2O)C=CC1 [NADH]
effect on biofilm biomass relative to untreated biofilms [1]: did not result in increased biofilm biomass accumulation

[N]=O [nitric oxide]
effect on PDH-induced dispersion of biofilms (microcolonies with void formation) [4]: can enhance

NC(=O)c1ccc[n+]([C@@H]2O[C@H](COP(=O)([O-])OP(=O)(O)OC[C@H]3O[C@@H](n4cnc5c(N)ncnc54)[C@H](O)[C@@H]3O)[C@@H](O)[C@H]2O)c1 [NAD+]
effect on biofilm biomass relative to untreated biofilms [1]: no effect
